Here are results for three compounds from US12351574B2, “Selective ligands for modulation of GIRK channels” (Northeastern University, priority 2018, dated 2025).

The target of this assay is T1, GIRK1/4 (Homo sapiens, UniProt P48544+P48549).
T1 sequence (P48549 1-501): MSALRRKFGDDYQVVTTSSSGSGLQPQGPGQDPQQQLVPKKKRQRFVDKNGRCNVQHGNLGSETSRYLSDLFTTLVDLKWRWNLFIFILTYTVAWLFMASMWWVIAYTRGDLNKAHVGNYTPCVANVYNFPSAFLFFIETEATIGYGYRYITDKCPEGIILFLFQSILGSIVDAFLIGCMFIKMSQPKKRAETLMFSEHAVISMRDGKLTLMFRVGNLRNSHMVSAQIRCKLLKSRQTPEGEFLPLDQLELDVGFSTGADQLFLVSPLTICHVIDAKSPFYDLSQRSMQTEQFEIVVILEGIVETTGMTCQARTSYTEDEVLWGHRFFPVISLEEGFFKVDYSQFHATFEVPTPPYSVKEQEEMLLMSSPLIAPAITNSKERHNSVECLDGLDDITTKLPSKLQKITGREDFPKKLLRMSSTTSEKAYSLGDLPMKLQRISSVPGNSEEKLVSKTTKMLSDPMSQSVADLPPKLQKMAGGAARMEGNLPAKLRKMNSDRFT
T1 sequence (P48544 1-419): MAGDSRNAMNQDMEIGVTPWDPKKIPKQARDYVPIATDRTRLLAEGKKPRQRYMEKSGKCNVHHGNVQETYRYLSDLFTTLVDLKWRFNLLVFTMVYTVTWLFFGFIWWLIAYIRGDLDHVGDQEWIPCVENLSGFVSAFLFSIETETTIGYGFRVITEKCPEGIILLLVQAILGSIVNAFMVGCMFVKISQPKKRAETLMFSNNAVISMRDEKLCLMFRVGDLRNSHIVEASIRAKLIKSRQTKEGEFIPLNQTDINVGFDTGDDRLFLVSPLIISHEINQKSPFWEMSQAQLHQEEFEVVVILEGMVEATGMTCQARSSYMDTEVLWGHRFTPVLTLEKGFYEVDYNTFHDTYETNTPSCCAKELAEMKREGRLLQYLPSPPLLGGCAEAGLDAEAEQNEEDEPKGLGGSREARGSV
The experiment in a line: current inhibition by light-activated phosphatase 5-ptaseOCRL, HEK293 whole-cell patch-clamp, GIRK1/4. The format is cell-based. Details: expressed in transfected cells. As to conditions: HEK-293 cells. From the text:
The inventors next pursued whole-cell patch-clamp experiments to further validate the model predictions and excised-patch results. Expression of a light-activated phosphatase that upon exposure to blue light dephosphorylates PI(4,5)P2 to PI(4)P and inhibits GIRK currents allowed recording of macroscopic currents in the absence and presence of ML297 and the two brain-specific GAT compounds. […] Since GAT1508 and ML297 only bind GIRK1 or GIRK1-like (i.e. “FD-containing”, “FD”=mimics the contribution of GIRK1 residues F137 and D173, see Example 2) subunits resulting in corresponding changes in channel-PIP2 interactions and channel activity, the inventors next sought to compare channel subunit specific interactions with PIP2 for subunits bound to the ligand (P-FD) versus those not bound to the ligand (P-WT) (FIGS. 19, 38A).
Culture of HEK293 cells: HEK293-T cells were obtained from ATCC and maintained in DMEM medium supplemented with 10% FBS and 1% penicillin and streptomycin (Hyclone). For patch-clamp studies, cells were seeded on glass coverslips and transfected 24-hours later using a polyethylenimine solution (1 mg/ml) at a ratio of 8 μl per μg of DNA. To study GIRK-currents, cells were transfected with 0.75 μg each of plasmids encoding GIRK1, GIRK2 or GIRK4 as indicated. In the optogenetic experiments, cells were co-transfected with plasmids encoding 5-ptaseOCRL and CIBN-CAAX, as previously described. 5-ptaseOCRL and CIBN-CAAX were a kind gift from the DeCamilli lab, Yale CT. All experiments were performed at room temperature 24-36 hours post transfection. […]
Patch-clamp recording: Whole-cell currents were recorded with an Axopatch 200B amplifier (Molecular Devices) controlled via a USB-interface (National Instruments) using WinWCP software (University of Strathclyde). […] The barium-sensitive component of the current, observed when cells were perfused with the high-K^+ buffer, was analyzed and was determined by perfusing 5 mM BaCl2 in the high-K^+ buffer at the end of each experiment. […]
A general note: The patch-clamp technique gives a direct electrical read-out from membranes.
For `Cc1cc(NC(=O)Nc2ccc(Br)s2)n(-c2ccccc2)n1` [GAT1508, 1-(5-bromothiophen-2-yl)-3-(3-methyl-1-phenyl-1H-pyrazol-5-yl)urea], the “protection of GIRK1/4 currents from inhibition by the light-activated phosphatase (in words)” value was “not”.
As for `Cc1cc(NC(=O)Nc2ccc(C)s2)n(-c2ccccc2)n1` [GAT1521, 1-(3-methyl-1-phenyl-1H-pyrazol-5-yl)-3-(5-methylthiophen-2-yl)urea], the entry is “not”.
For the compound `Cc1cc(NC(=O)Nc2ccc(F)c(F)c2)n(-c2ccccc2)n1` [ML297, reference compound], the “protection of GIRK1/4 currents from inhibition by the light-activated phosphatase (in words)” value is recorded as “some protection”.
